The text below walks through data of the supplement of paper PMC10307832.

Common to all, as to assay: relative viability (nuclei count vs DMSO), 5 days (fraction); higher = more cells survive
Compound in assay [1]: Nc1ccccc1NC(=O)c1ccc(CNC(=O)OCc2cccnc2)cc1 [Entinostat] + Cc1nc(NC(=O)N2CCC[C@H]2C(N)=O)sc1-c1ccnc(C(C)(C)C(F)(F)F)c1 [Alpelisib] (partner 2 µM)
The method, boiled down: (§1)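 Relative viability is defined as nuclei in treated wells over nuclei in vehicle wells. Duplicate plates were run and medians reported. Lung cancer cell lines in 1536-well plates were dosed by pin tool one day after seeding, with one drug or with a fixed anchor-drug dose plus five library-drug doses (not always all listed) in √10 steps, and nuclei were counted after 5 days.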

Compound in assay [2]: CN1CCC(CNc2ccc3ncc(-c4cccc(OC(F)(F)F)c4)n3n2)CC1 [SGI-1776] + CS(=O)(=O)N1CCN(Cc2cc3nc(-c4cccc5[nH]ncc45)nc(N4CCOCC4)c3s2)CC1 [Pictilisib] (partner 1 µM)
Summed up: as §1

Compound in assay [3]: C1COCCN1C2=NC(=NC3=C2OC4=C3C=CC=N4)C5=CC(=CC=C5)NC(=O)C6=CN=C(C=C6)N + Nc1nc2[nH]cc(CCc3ccc(C(=O)N[C@@H](CCC(=O)O)C(=O)O)cc3)c2c(=O)[nH]1 [Pemetrexed] (partner 0.2 µM)
Summed up:
as §1

Compound in assay [4]: CN1CCC(CNc2ccc3ncc(-c4cccc(OC(F)(F)F)c4)n3n2)CC1 [SGI-1776] + COc1cc2c(Oc3ccc(NC(=O)C4(C(=O)Nc5ccc(F)cc5)CC4)cc3F)ccnc2cc1OCCCN1CCOCC1 [Foretinib] (partner 0.25 µM)
The method, boiled down: as §1

Regarding NCI-H2023, the relative viability in assay [1] (first compound 0.02 µM) was determined as 0.475; in assay [1] (first compound 0.06325 µM) it was 0.5; in assay [1] (first compound 0.2 µM), 0.319; in assay [1] (first compound 0.6325 µM), 0.165; in assay [1] (first compound 2 µM) it was 0.128; in assay [2] (first compound 0.08 µM), 0.23. Besides, the relative viability in assay [2] (first compound 0.8 µM) was 0.23; in assay [2] (first compound 2.53 µM), 0.202; in assay [2] (first compound 8 µM), 0.147; in assay [3] (first compound 0.02 µM), 0.278; in assay [3] (first compound 0.06325 µM), 0.222; in assay [3] (first compound 0.2 µM), 0.196. Besides, the relative viability was 0.166 in assay [3] (first compound 0.6325 µM); 0.134 in assay [3] (first compound 2 µM); 0.96 in assay [4] (first compound 0.08 µM); 0.857 in assay [4] (first compound 0.8 µM); 0.675 in assay [4] (first compound 2.53 µM); 0.328 in assay [4] (first compound 8 µM).

For the cell line NCI-H2085, the relative viability in assay [1] (first compound 0.02 µM) worked out at 0.947; in assay [1] (first compound 0.06325 µM), 0.946; in assay [1] (first compound 0.2 µM) it was 0.766; in assay [1] (first compound 0.6325 µM) it was 0.634; in assay [1] (first compound 2 µM), 0.502; in assay [2] (first compound 0.08 µM) it was 0.533. The relative viability in assay [2] (first compound 0.8 µM) amounted to 0.505; in assay [2] (first compound 2.53 µM), 0.53; in assay [2] (first compound 8 µM), 0.356; in assay [3] (first compound 0.02 µM), 0.795; in assay [3] (first compound 0.06325 µM), 0.872; in assay [3] (first compound 0.2 µM), 0.837. Besides, the relative viability in assay [3] (first compound 0.6325 µM) was determined as 0.825; in assay [3] (first compound 2 µM), 0.586; in assay [4] (first compound 0.08 µM), 0.864; in assay [4] (first compound 0.8 µM), 0.864; in assay [4] (first compound 2.53 µM), 0.852; in assay [4] (first compound 8 µM), 0.715.

On to NCI-H2087, for which the relative viability in assay [1] (first compound 0.02 µM) was 0.983; in assay [1] (first compound 0.06325 µM), 0.954; in assay [1] (first compound 0.2 µM), 0.806; in assay [1] (first compound 0.6325 µM), 0.64; in assay [1] (first compound 2 µM) it was 0.54; in assay [2] (first compound 0.08 µM), 0.953. The relative viability in assay [2] (first compound 0.8 µM) was found to be 0.974; in assay [2] (first compound 2.53 µM), 0.826; in assay [2] (first compound 8 µM), 0.899; in assay [3] (first compound 0.02 µM) it was 0.653; in assay [3] (first compound 0.06325 µM), 0.611; in assay [3] (first compound 0.2 µM), 0.61. Besides, the relative viability in assay [3] (first compound 0.6325 µM) worked out at 0.619; in assay [3] (first compound 2 µM), 0.258; in assay [4] (first compound 0.08 µM) it was 1.1; in assay [4] (first compound 0.8 µM), 1.17; in assay [4] (first compound 2.53 µM), 0.843; in assay [4] (first compound 8 µM), 0.376.

Take NCI-H2126: the relative viability in assay [1] (first compound 0.02 µM) was 0.738; in assay [1] (first compound 0.06325 µM) it was 0.708; in assay [1] (first compound 0.2 µM), 0.614; in assay [1] (first compound 0.6325 µM), 0.46; in assay [1] (first compound 2 µM) it was 0.317; in assay [2] (first compound 0.08 µM), 0.499. Also, the relative viability came to 0.534 in assay [2] (first compound 0.8 µM); 0.501 in assay [2] (first compound 2.53 µM); 0.468 in assay [2] (first compound 8 µM); 0.706 in assay [3] (first compound 0.02 µM); 0.784 in assay [3] (first compound 0.06325 µM); 0.674 in assay [3] (first compound 0.2 µM). The relative viability in assay [3] (first compound 0.6325 µM) was determined as 0.629; in assay [3] (first compound 2 µM) it was 0.559; in assay [4] (first compound 0.08 µM), 1.29; in assay [4] (first compound 0.8 µM), 1.27; in assay [4] (first compound 2.53 µM), 1.44; in assay [4] (first compound 8 µM) it was 1.06.

Consider NCI-H2170, for which the relative viability in assay [1] (first compound 0.02 µM) was 0.77; in assay [1] (first compound 0.06325 µM) it was 0.747; in assay [1] (first compound 0.2 µM), 0.771; in assay [1] (first compound 0.6325 µM) it was 0.521; in assay [1] (first compound 2 µM) it was 0.345; in assay [2] (first compound 0.08 µM) it was 0.297. Besides, the relative viability in assay [2] (first compound 0.8 µM) stood at 0.281; in assay [2] (first compound 2.53 µM) it was 0.284; in assay [2] (first compound 8 µM), 0.238; in assay [3] (first compound 0.02 µM) it was 0.263; in assay [3] (first compound 0.06325 µM), 0.274; in assay [3] (first compound 0.2 µM), 0.259. The relative viability in assay [3] (first compound 0.6325 µM) came to 0.258; in assay [3] (first compound 2 µM), 0.247; in assay [4] (first compound 0.08 µM), 0.959; in assay [4] (first compound 0.8 µM), 1; in assay [4] (first compound 2.53 µM) it was 1.02; in assay [4] (first compound 8 µM), 0.987.

With NCI-H2228, the relative viability came to 0.785 in assay [1] (first compound 0.02 µM); 0.608 in assay [1] (first compound 0.06325 µM); 0.473 in assay [1] (first compound 0.2 µM); 0.325 in assay [1] (first compound 0.6325 µM); 0.273 in assay [1] (first compound 2 µM); 0.446 in assay [2] (first compound 0.08 µM). Further, the relative viability in assay [2] (first compound 0.8 µM) came out at 0.38; in assay [2] (first compound 2.53 µM), 0.286; in assay [2] (first compound 8 µM) it was 0.177; in assay [3] (first compound 0.02 µM), 0.348; in assay [3] (first compound 0.06325 µM), 0.345; in assay [3] (first compound 0.2 µM) it was 0.299. The relative viability worked out at 0.26 in assay [3] (first compound 0.6325 µM); 0.144 in assay [3] (first compound 2 µM); 0.889 in assay [4] (first compound 0.08 µM); 0.613 in assay [4] (first compound 0.8 µM); 0.803 in assay [4] (first compound 2.53 µM); 0.446 in assay [4] (first compound 8 µM).

In the case of NCI-H2347, the relative viability is 1.09 in assay [1] (first compound 0.02 µM); 0.99 in assay [1] (first compound 0.06325 µM); 0.865 in assay [1] (first compound 0.2 µM); 0.391 in assay [1] (first compound 0.6325 µM); 0.343 in assay [1] (first compound 2 µM); 0.614 in assay [2] (first compound 0.08 µM). Also, the relative viability in assay [2] (first compound 0.8 µM) stood at 0.941; in assay [2] (first compound 2.53 µM) it was 0.734; in assay [2] (first compound 8 µM) it was 0.614; in assay [3] (first compound 0.02 µM), 0.416; in assay [3] (first compound 0.06325 µM) it was 0.528; in assay [3] (first compound 0.2 µM), 0.433. For the same cell line, the relative viability in assay [3] (first compound 0.6325 µM) worked out at 0.417; in assay [3] (first compound 2 µM), 0.427; in assay [4] (first compound 0.08 µM), 0.836; in assay [4] (first compound 0.8 µM) it was 0.862; in assay [4] (first compound 2.53 µM), 0.531; in assay [4] (first compound 8 µM), 0.84.

In the case of NCI-H2405, the relative viability in assay [1] (first compound 0.02 µM) came out at 0.789; in assay [1] (first compound 0.06325 µM) it was 1.01; in assay [1] (first compound 0.2 µM), 0.931; in assay [1] (first compound 0.6325 µM), 0.795; in assay [1] (first compound 2 µM), 0.528; in assay [2] (first compound 0.08 µM) it was 0.478. The relative viability came to 0.507 in assay [2] (first compound 0.8 µM); 0.309 in assay [2] (first compound 2.53 µM); 0.257 in assay [2] (first compound 8 µM); 1.04 in assay [3] (first compound 0.02 µM); 1.11 in assay [3] (first compound 0.06325 µM); 1.03 in assay [3] (first compound 0.2 µM). Moreover, the relative viability in assay [3] (first compound 0.6325 µM) is 0.968; in assay [3] (first compound 2 µM), 0.989; in assay [4] (first compound 0.08 µM) it was 1.07; in assay [4] (first compound 0.8 µM) it was 1; in assay [4] (first compound 2.53 µM), 0.998; in assay [4] (first compound 8 µM), 0.934.
